± gives the expanded uncertainty stated by the source.
Details: Liquid, isochoric method

CCCCn1cc[n+](C)c1.N#CN=C=[N-] [1-butyl-3-methylimidazolium dicyanamide]
Details	mass density [kg/m3]
237.2 K, 1327.9 kPa	1099.45 ± 1.6
242.14 K, 9986.9 kPa	1099.05 ± 1.6
247.77 K, 20189 kPa	1098.57 ± 1.6
248.09 K, 1170.5 kPa	1092.06 ± 1.6
253.33 K, 10197 kPa	1091.63 ± 1.6
253.33 K, 29961 kPa	1098.11 ± 1.6
259.12 K, 20009 kPa	1091.16 ± 1.6
259.17 K, 39931 kPa	1097.63 ± 1.6
259.68 K, 1030 kPa	1084.28 ± 1.5
265.12 K, 50114 kPa	1097.14 ± 1.6
265.24 K, 10141 kPa	1083.84 ± 1.5
265.25 K, 30347 kPa	1090.66 ± 1.6
270.55 K, 18709 kPa	1083.42 ± 1.5
271.07 K, 59859 kPa	1096.65 ± 1.6
271.13 K, 39925 kPa	1090.18 ± 1.6
273.28 K, 2767.5 kPa	1075.98 ± 1.5
277.42 K, 50079 kPa	1089.67 ± 1.6
277.92 K, 9955.1 kPa	1075.61 ± 1.5
277.96 K, 30503 kPa	1082.82 ± 1.5
277.98 K, 10008 kPa	1075.61 ± 1.5
283.67 K, 59955 kPa	1089.17 ± 1.6
284.14 K, 40138 kPa	1082.33 ± 1.5
284.15 K, 1038.8 kPa	1068.31 ± 1.5
284.23 K, 1148.3 kPa	1068.31 ± 1.5
284.47 K, 20074 kPa	1075.1 ± 1.5
291.05 K, 29671 kPa	1074.21 ± 1.5
291.05 K, 30032 kPa	1074.57 ± 1.5
291.06 K, 11299 kPa	1067.78 ± 1.5
291.44 K, 51356 kPa	1081.75 ± 1.5
296.97 K, 19796 kPa	1067.32 ± 1.5
297.26 K, 60158 kPa	1081.29 ± 1.5
298.18 K, 40270 kPa	1073.65 ± 1.5
298.18 K, 40659 kPa	1074.02 ± 1.5
299.21 K, 3719.1 kPa	1059.78 ± 1.5
303.97 K, 10315 kPa	1059.42 ± 1.5
303.97 K, 30176 kPa	1066.78 ± 1.5
304.81 K, 50325 kPa	1073.5 ± 1.5
310.98 K, 40117 kPa	1066.24 ± 1.5
311.01 K, 20033 kPa	1058.89 ± 1.5
311.34 K, 59700 kPa	1072.99 ± 1.5
311.37 K, 676.6 kPa	1050.98 ± 1.5
317.98 K, 49917 kPa	1065.7 ± 1.5
318.27 K, 9911 kPa	1050.46 ± 1.5
318.27 K, 30183 kPa	1058.34 ± 1.5
325.32 K, 60007 kPa	1065.14 ± 1.5
325.56 K, 39796 kPa	1057.8 ± 1.5
326 K, 19921 kPa	1049.89 ± 1.5
326.53 K, 876.3 kPa	1041.71 ± 1.5
333.12 K, 50157 kPa	1057.22 ± 1.5
333.67 K, 9918.1 kPa	1041.19 ± 1.5
333.67 K, 30169 kPa	1049.32 ± 1.5
340.8 K, 60149 kPa	1056.64 ± 1.5
341.31 K, 39980 kPa	1048.75 ± 1.5
341.77 K, 20126 kPa	1040.59 ± 1.5
342.41 K, 781.5 kPa	1031.94 ± 1.4
349.32 K, 50089 kPa	1048.15 ± 1.5
349.8 K, 9629.2 kPa	1031.41 ± 1.4
349.8 K, 30031 kPa	1040.31 ± 1.5

CCn1cc[n+](C)c1.N#CN=C=[N-] [1-ethyl-3-methylimidazolium dicyanamide]
Details	mass density [kg/m3]
256.82 K, 20357 kPa	1142.71 ± 1.7
256.92 K, 29975 kPa	1145.41 ± 1.7
256.97 K, 10611 kPa	1139.49 ± 1.6
257.12 K, 1250.8 kPa	1136.35 ± 1.6
261.97 K, 9950.2 kPa	1135.94 ± 1.6
262.11 K, 19886 kPa	1139.04 ± 1.6
262.33 K, 39980 kPa	1144.93 ± 1.7
262.46 K, 619.6 kPa	1132.49 ± 1.6
267.67 K, 20023 kPa	1135.45 ± 1.6
267.67 K, 39943 kPa	1141.75 ± 1.7
267.7 K, 9753.2 kPa	1132.18 ± 1.6
267.7 K, 9894 kPa	1132.04 ± 1.6
267.7 K, 29879 kPa	1138.56 ± 1.6
267.7 K, 29968 kPa	1138.56 ± 1.6
267.7 K, 49706 kPa	1144.45 ± 1.7
267.71 K, 20196 kPa	1135.44 ± 1.6
267.71 K, 40066 kPa	1141.75 ± 1.7
267.71 K, 49662 kPa	1144.45 ± 1.7
268.06 K, 649.7 kPa	1128.69 ± 1.6
273.25 K, 29805 kPa	1134.96 ± 1.6
273.34 K, 49967 kPa	1141.26 ± 1.7
273.4 K, 39951 kPa	1138.06 ± 1.6
273.49 K, 19943 kPa	1131.55 ± 1.6
273.51 K, 10041 kPa	1128.22 ± 1.6
273.55 K, 60051 kPa	1143.95 ± 1.7
274.21 K, 775.7 kPa	1124.56 ± 1.6
278.57 K, 59071 kPa	1140.8 ± 1.7
279.2 K, 40050 kPa	1134.45 ± 1.6
279.22 K, 50024 kPa	1137.55 ± 1.6
279.41 K, 30010 kPa	1131.04 ± 1.6
279.59 K, 10349 kPa	1124.23 ± 1.6
279.65 K, 9960.6 kPa	1124.1 ± 1.6
279.66 K, 20569 kPa	1127.7 ± 1.6
280.01 K, 1016.8 kPa	1120.72 ± 1.6
280.04 K, 1077.6 kPa	1120.72 ± 1.6
285.08 K, 50002 kPa	1133.94 ± 1.6
285.13 K, 60064 kPa	1137.04 ± 1.6
285.39 K, 9816.5 kPa	1120.27 ± 1.6
285.42 K, 40116 kPa	1130.53 ± 1.6
285.43 K, 19560 kPa	1123.61 ± 1.6
285.44 K, 19459 kPa	1123.61 ± 1.6
285.45 K, 9814.9 kPa	1120.27 ± 1.6
285.5 K, 20153 kPa	1123.73 ± 1.6
285.51 K, 30235 kPa	1127.2 ± 1.6
286.62 K, 2009 kPa	1116.68 ± 1.6
291.09 K, 59995 kPa	1133.42 ± 1.6
291.45 K, 50059 kPa	1130.01 ± 1.6
291.47 K, 9754 kPa	1116.28 ± 1.6
291.47 K, 50178 kPa	1130.13 ± 1.6
291.51 K, 40153 kPa	1126.69 ± 1.6
291.61 K, 19904 kPa	1119.75 ± 1.6
291.79 K, 29944 kPa	1123.08 ± 1.6
297.62 K, 60101 kPa	1129.48 ± 1.6
297.75 K, 50232 kPa	1126.16 ± 1.6
297.91 K, 20011 kPa	1115.75 ± 1.6
297.98 K, 30141 kPa	1119.22 ± 1.6
298.08 K, 1020.2 kPa	1108.78 ± 1.6
298.16 K, 103.4 kPa	1108.35 ± 1.6
298.16 K, 40265 kPa	1122.54 ± 1.6
303.94 K, 60074 kPa	1125.65 ± 1.6
304.2 K, 39942 kPa	1118.71 ± 1.6
304.23 K, 49724 kPa	1122.03 ± 1.6
304.28 K, 29918 kPa	1115.22 ± 1.6
304.34 K, 10634 kPa	1108.27 ± 1.6
310.52 K, 20049 kPa	1107.77 ± 1.6
310.57 K, 59616 kPa	1121.51 ± 1.6
310.65 K, 49941 kPa	1118.17 ± 1.6
310.81 K, 40003 kPa	1114.68 ± 1.6
311.24 K, 1092 kPa	1100.23 ± 1.6
317.17 K, 9765 kPa	1099.76 ± 1.6
317.19 K, 29905 kPa	1107.23 ± 1.6
317.23 K, 59899 kPa	1117.62 ± 1.6
317.44 K, 50073 kPa	1114.13 ± 1.6
324.19 K, 60082 kPa	1113.57 ± 1.6
324.28 K, 20103 kPa	1099.19 ± 1.6
325.02 K, 1127.1 kPa	1091.44 ± 1.6
331.28 K, 30008 kPa	1098.63 ± 1.6
331.29 K, 9862.4 kPa	1090.95 ± 1.6
337.92 K, 60055 kPa	1105.54 ± 1.6
338.39 K, 40023 kPa	1098.06 ± 1.6
338.74 K, 20149 kPa	1090.36 ± 1.6
339.67 K, 1074 kPa	1082.2 ± 1.5
345.69 K, 50073 kPa	1097.48 ± 1.6
346.21 K, 30275 kPa	1089.77 ± 1.6
346.22 K, 9873.1 kPa	1081.75 ± 1.5

— the NIST ThermoML archive (doi:10.1021/je201283n)
